Assay results from patent US20200247812A1 (Integral Biosciences Private Limited, priority 2018, published 2020).

Experiments:
Assay type in all cases: cell-based
MiaPaCa-2 = assay: Cell viability assay (resazurin), MiaPaCa-2; conditions: Homo sapiens, MIA PaCa-2, 72-144 hr
Description: Different cell lines such as pancreatic, (MIA PaCa-2; ATCC®CRL-1420™ & and Panc-1; CRL-1469™), liver carcinoma (HepG2; ATCC® HB-8065™), lung epithelial carcinoma (A549; ATCC® CCL-185™) and others were seeded in their respective medium (DMEM, Cat #10569044, MEM, Cat #41090036; RPMI, Cat #22400089; all with 10% FBS, Gibco, ThermoFisher) at a cell count of 3000 cells per 100 μl per well in a 96 well edge plate (167425; ThermoFisher). Cells were allowed to grow at 37° C. for 24 hr in 5% CO2 (culture conditions) in a Nuaire incubator (humidified). Serially diluted compounds (100 μl) were added to the culture plate 24 hr later and the cultures were further incubated in culture conditions for specified time depending on doubling time of specific cell line (ranging from 72-144 hr). […] Fluorescence was then measured using a multimodal plate reader (Biotek Synergy Neo) at an excitation wavelength of 535 nm and emission wavelength of 590 nm to obtain relative fluorescence units. Data analysis was done by subtracting the background fluorescence (only medium blank) value from each reading and then normalizing with the vehicle control (DMSO treated cells) to obtain percent survival/proliferation. […]

22Rv1 = assay: Cell viability assay (resazurin), 22Rv1; conditions: Homo sapiens, 72-144 hr
Description: (§1) Different cell lines such as pancreatic, (MIA PaCa-2; ATCC®CRL-1420™ & and Panc-1; CRL-1469™), liver carcinoma (HepG2; ATCC® HB-8065™), lung epithelial carcinoma (A549; ATCC® CCL-185™) and others were seeded in their respective medium (DMEM, Cat #10569044, MEM, Cat #41090036; RPMI, Cat #22400089; all with 10% FBS, Gibco, ThermoFisher) at a cell count of 3000 cells per 100 μl per well in a 96 well edge plate (167425; ThermoFisher). Cells were allowed to grow at 37° C. for 24 hr in 5% CO2 (culture conditions) in a Nuaire incubator (humidified). Serially diluted compounds (100 μl) were added to the culture plate 24 hr later and the cultures were further incubated in culture conditions for specified time depending on doubling time of specific cell line (ranging from 72-144 hr). Experiment was terminated at the completion of incubation time with the drug by replacing the medium with 100 μl of 1 mM of resazurin (R7017; Sigma) prepared in respective culture medium and the plates were further incubated in culture conditions for 4 hr. Fluorescence was then measured using a multimodal plate reader (Biotek Synergy Neo) at an excitation wavelength of 535 nm and emission wavelength of 590 nm to obtain relative fluorescence units. Data analysis was done by subtracting the background fluorescence (only medium blank) value from each reading and then normalizing with the vehicle control (DMSO treated cells) to obtain percent survival/proliferation. Percent survival at different doses was used to calculate IC50 by fitting the curve to the “four-parameter variable slope logistic model” using Prism Graph Pad.

AsPC-1 = assay: Cell viability assay (resazurin), AsPC-1; conditions: Homo sapiens, ASPC1, 72-144 hr
Description: as §1

MCF7 = assay: Cell viability assay (resazurin), MCF7; conditions: Homo sapiens, 72-144 hr
Description: as §1

Panc-10.05 = assay: Cell viability assay (resazurin), Panc-10.05; conditions: Homo sapiens, Panc1005, 72-144 hr
Description: as §1

[1] = test system: mIFN-γ release by activated mouse splenocytes; assay: Mouse splenocyte assay: reversal of TGF-β suppressed, CD3e/CD28 induced mIFN-γ release (ELISA); conditions: Balb/c splenocytes, anti-CD3e/CD28, mouse TGF-β 10 ng/ml, 72 hr, read-out: Inhibition of mIFN-γ release by activated Mouse Splenocyte, IC50
Description: IC50 values of compounds for reversal of TGF-β suppressed and CD3e/CD28 induced mIFNγ release was determined in mouse splenocytes isolated from Balb/c mice cultured in RPMI, Cat #22400089; 10% FBS, Gibco, ThermoFisher). Mouse splenocytes (2×10^5 cells/well) were activated with Anti-mouse CD3e (2.5 μg/ml, coated overnight at 4° C.; Cat #14-0032-82, eBioscience) and then incubated with serial dilutions of compounds (3 fold, 8 point dose response starting at 3 μM) in the presence of mouse TGF-β (10 ng/ml; Cat #14-8342-80, ebiosciences) for 30 min at 37° C., 5% CO2 in an incubator (cell culture conditions) prior to treating them with Anti-mouse CD28 (0.1 μg/ml soluble; Cat #16-0281-82, eBiosciences). Splenocytes were further incubated under cell culture conditions for 72 hr after which the supernatant was harvested, diluted to 1:50 and ELISA was performed as per the manufacturer's protocol (mIFN-γ kit; Cat #555138 & 550534, BD Biosciences). Plates were read in Biotek plate reader by measuring absorbance at 450 nm.
The reversal of TGF-β suppressed mIFN-γ release by compounds was quantified by first obtaining the amount of mIFN-γ (in pg/ml) released at each concentration of the compound with respect to the mIFN-γ standard. […] The IC50 was calculated by fitting the curve to the “four-parameter variable slope logistic model” using Prism Graph Pad.

[2] = test system: phosphorylation of Smad-2 in THP-1 cells; assay: Inhibition of phosphorylation of Smad-2 in THP-1 cells (Phospho-Smad2 ELISA); conditions: 1.5 h, human TGF-β 20 ng/ml, 90 min, read-out: pSmad2 IC50
Description: IC50 values of compounds for determining inhibition of phosphorylation of Smad-2 in THP-1 cells (ATCC, Cat # ATCC® TIB-202™) cultured in RPMI medium, (Cat #22400089; with 10% FBS, Gibco, ThermoFisher). THP-1 cells (1.0×10^6 cells/well; 6 well plate) were incubated with serial dilutions of compounds (3 fold, 5 point dose response starting at 10 μM) for 60 min at 37° C., 5% CO2 in an incubator (cell culture conditions) prior to treating them with Recombinant Human TGF-β (20 ng/ml soluble; Cat #100-21, Peprotech) for 90 min. The cells were then pelleted and processed for protein estimation and evaluation of pSmad using ELISA kit from Cell Signaling (PathScan(R) Phospho-Smad2 (Ser465/467) Sandwich ELISA; Cat #7348C) as per manufacturer's protocol. Data analysis was done by subtracting the background absorbance (only negative control) value from each reading and then normalizing with the vehicle control (DMSO treated cells) to obtain percent levels of pSmad-2. Percent inhibition thus obtained (by subtracting expression levels of pSmad from 100) at different doses was used to calculate IC50 by fitting the curve to the “four-parameter variable slope logistic model” using Prism Graph Pad.

| Structure (SMILES) | IC50 (MiaPaCa-2) [µM] | IC50 (22Rv1) [µM] | IC50 (AsPC-1) [µM] | IC50 (MCF7) [µM] | IC50 (Panc-10.05) [µM] | IC50 [1] [µM] | IC50 [2] [µM] |
| --- | --- | --- | --- | --- | --- | --- | --- |
| CC(=O)Nc1cc(Nc2cc(-c3cc(Cl)ccc3F)c(=O)[nH]c2C(C)C)ccn1 [Compound 1.48, N-(4-((5-(5-chloro-2-fluorophenyl)-2-isopropyl-6-oxo-1,6-dihydropyridin-3-yl)amino)pyridin-2-yl)acetamide] | > 30 | > 30 | > 30 | > 10 | > 30 | 0.156 | 0.123 |
| CC(C)c1[nH]c(=O)c(-c2cc(Cl)ccc2F)cc1Nc1ccnc2[nH]ccc12 [Compound 1.50, 5-((1H-pyrrolo[2,3-b]pyridin-4-yl)amino)-3-(5-chloro-2-fluorophenyl)-6-isopropylpyridin-2(1H)-one] | > 30 | – | – | > 10 | 4.72 | 0.107 | 0.539 |
